From PMC6450887, “Metabolic resistance of the D-peptide RD2 developed for direct elimination of amyloid-β oligomers” (Scientific Reports, 2019)
Non-standard residues stand in square brackets, D forms with d. Residues, ends and D or L forms follow the SMILES beside them.

Tests used:
[1] = Comparison of RD2 metabolite profiles across species: rat liver microsomes; format: in vitro ADME
Description: (§1) The preparation of the media was performed as described before in Elfgen et al.[24]. Preparation of simulated gastric and intestinal fluid (SGF & SIF) was done according to the European Pharmacopoeia 7.0. Plasma samples were obtained from human blood of a volunteer donor. Pooled human liver microsomes were purchased from Sekisui XenoTech (Kansas City, USA; H1000, Lot: 0710494 and 1210270; H1500, Lot: 1210079), from Sigma-Aldrich (St. Louis, USA; M0692, Lot: SLBL1433V; M0567, Lot: SLBR2706V and SLBN7300V) and from Gibco, Thermo Fisher Scientific (Waltham, USA; HMMCPL, Lot: PL050; HMMCPM, Lot: PL039). Pooled Sprague Dawley rat liver microsomes were purchased from Sigma-Aldrich (St. Louis, USA; M9066, Lot: SLBN0707V) and from Gibco, Thermo Fisher Scientific (Waltham, USA; RTMCPL, Lot: RT053). Pooled cynomolgus monkey liver microsomes were purchased from Gibco, Thermo Fisher Scientific (Waltham, USA; MKMCPL, Lot: MK062) and from Sekisui XenoTech (Kansas City, USA; P2000, Lot: 1210334). The liver microsomes were diluted in an NADPH regenerating system (NRS).
(§2) For the stability tests, 150 µM RD2 or L-RD2 was incubated in SGF, SIF, human plasma and human liver microsomes in triplicate at 37 °C with slight shaking for different time periods. To prevent microbial contaminations in long-term plasma incubations, 0.1% sodium azide was added to the solutions. Microsomal long-term activity was examined by incubating microsomes without peptide for up to 24 h and adding L-RD2 after 8 and 24 h. The ability to degrade L-RD2 served as indicator for their activity. For the comparison of RD2 metabolite profiles across species, 150 µM RD2 was incubated in human, rat and cynomolgus liver microsomes at 37 °C for 2 and 24 h. […]
(§3) For the comparison of RD2 metabolite profiles across species (see 2.3), mobile phases were acetonitrile (A) and water (B) each supplemented with 0.1% TFA. […] The amount of the purified HSM-3 was calculated based on a calibration curve of 10 to 100 µM RD2 extracted from human liver microsomes.

[2] = Stability in simulated gastric fluid (SGF), RP-HPLC; format: in vitro ADME; conditions: 37 °C, read-out: unmetabolized peptide remaining (remained stable)
Description: as §1, with “The liver microsomes were diluted in an NADPH regenerating system (NRS).” left out
For sample analysis from stability tests (see 2.3), mobile phases were acetonitrile (A) and water (B) each supplemented with 0.15% trifluoroacetic acid (TFA) (v/v). The samples were measured isocratically at 10% solvent A for 30 min. […] A chromatographic metabolite profile of L-RD2 in SIF was recorded with the same mobile phases but using a gradient from 0 to 30% solvent A in 30 min.

CYP2C9 = CYP2C9 (Homo sapiens, UniProt P11712); assay: CYP isoform inhibition in human liver microsomes (Cyprotex)
Sequence of CYP2C9 (P11712 whole entry, canonical isoform): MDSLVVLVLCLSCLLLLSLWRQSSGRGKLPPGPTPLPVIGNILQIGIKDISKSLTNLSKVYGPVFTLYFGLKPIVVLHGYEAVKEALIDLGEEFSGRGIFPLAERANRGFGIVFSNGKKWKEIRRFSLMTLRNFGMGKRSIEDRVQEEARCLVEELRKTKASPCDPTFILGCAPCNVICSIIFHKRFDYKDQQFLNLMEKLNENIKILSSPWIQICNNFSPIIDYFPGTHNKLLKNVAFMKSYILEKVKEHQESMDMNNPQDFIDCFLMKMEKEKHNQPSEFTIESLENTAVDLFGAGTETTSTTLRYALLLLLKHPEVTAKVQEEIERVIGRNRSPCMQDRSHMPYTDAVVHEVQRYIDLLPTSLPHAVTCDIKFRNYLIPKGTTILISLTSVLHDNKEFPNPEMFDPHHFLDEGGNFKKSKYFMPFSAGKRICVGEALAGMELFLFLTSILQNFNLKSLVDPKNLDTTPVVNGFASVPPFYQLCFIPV
Description: (§5) The experiments were performed by Cyprotex. […] The reactions were terminated by methanol and the generated metabolites were monitored by LC-MS/MS or fluorescence. […] All assays were performed sevenfold. […] For all other substrates, the termination plates were centrifuged at 2,500 rpm and 4 °C for 30 min and aliquots of the supernatants were combined and transferred to fresh 96-well plates. Formic acid in deionized water (final concentration 0.1%) containing internal standard was added to the supernatants prior to cassette analysis by LC-MS/MS. A decrease in the formation of the metabolite compared to the vehicle control was used to calculate the IC50 values.

[3] = Stability in human plasma, RP-HPLC; format: in vitro ADME; conditions: female, 37 °C
Description: as §1
For the stability tests, 150 µM RD2 or L-RD2 was incubated in SGF, SIF, human plasma and human liver microsomes in triplicate at 37 °C with slight shaking for different time periods. To prevent microbial contaminations in long-term plasma incubations, 0.1% sodium azide was added to the solutions. Microsomal long-term activity was examined by incubating microsomes without peptide for up to 24 h and adding L-RD2 after 8 and 24 h. The ability to degrade L-RD2 served as indicator for their activity. For the comparison of RD2 metabolite profiles across species, 150 µM RD2 was incubated in human, rat and cynomolgus liver microsomes at 37 °C for 2 and 24 h. The peptides were extracted by precipitating the proteins with trichloroacetic acid (TCA) and subsequent centrifugation, as described previously in Elfgen et al.[24]. Peptides immediately extracted from the media and precipitated media without peptides served as controls.
For sample analysis from stability tests (see 2.3), mobile phases were acetonitrile (A) and water (B) each supplemented with 0.15% trifluoroacetic acid (TFA) (v/v). The samples were measured isocratically at 10% solvent A for 30 min. This run conditions allowed us to detect smallest chemical changes including the differentiation between the original compound and a deamidated version (Fig. S1). RD2 and L-RD2 can potentially be deamidated at two sites, the C-terminus and the asparagine at position seven. Peak areas of the unmetabolized peptides after different incubation times were normalized to the peptides’ peak areas after direct extraction from the media. […] A chromatographic metabolite profile of L-RD2 in SIF was recorded with the same mobile phases but using a gradient from 0 to 30% solvent A in 30 min.

CYP3A4 = CYP3A4 (Homo sapiens, UniProt P08684); assay: CYP isoform inhibition in human liver microsomes (Cyprotex)
Sequence of CYP3A4 (P08684 whole entry, canonical isoform): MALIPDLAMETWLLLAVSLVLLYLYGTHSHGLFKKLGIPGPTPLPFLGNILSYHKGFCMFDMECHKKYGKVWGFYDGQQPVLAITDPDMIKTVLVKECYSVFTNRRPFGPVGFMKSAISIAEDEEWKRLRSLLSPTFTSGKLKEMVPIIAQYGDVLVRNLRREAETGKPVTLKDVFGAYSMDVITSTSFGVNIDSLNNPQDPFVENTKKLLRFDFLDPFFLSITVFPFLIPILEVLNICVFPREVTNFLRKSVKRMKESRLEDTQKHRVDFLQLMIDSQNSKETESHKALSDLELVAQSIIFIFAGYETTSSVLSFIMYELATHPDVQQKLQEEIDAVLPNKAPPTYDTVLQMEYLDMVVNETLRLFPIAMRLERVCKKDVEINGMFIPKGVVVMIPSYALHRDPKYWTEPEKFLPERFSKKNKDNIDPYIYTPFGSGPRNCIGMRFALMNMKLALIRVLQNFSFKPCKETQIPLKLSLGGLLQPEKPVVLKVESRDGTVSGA
Description: as §5

[4] = tested on: Rat PC12 (pheochromocytoma) cells; assay: MTT cell viability assay; format: cell-based; conditions: rat, 24 h, 2 µM
Description: (§4) Rat PC12 (pheochromocytoma) cells (Leibniz Institute DSMZ, Braunschweig, Germany) were cultivated in Dulbecco’s Modified Eagle Medium (DMEM) supplemented with 10% fetal bovine serum, 5% horse serum and 1% penicillin-streptomycin. 10,000 cells per well were seeded on collagen A-coated 96-well plates (Thermo Fisher Scientific, Waltham, USA) and incubated in a 95% humidified atmosphere with 5% CO2 at 37 °C for 24 h. Samples with untreated RD2 and RD2 or HSM-3 purified from human liver microsomes (see 2.8) in 10 mM sodium phosphate buffer (pH 7.4) were prepared. Buffer without peptides and Triton X-100 (cytotoxic compound) served as controls. The samples were added to the PC12 cells in quadruple and incubated in 95% humidified atmosphere with 5% CO2 at 37 °C for 24 h. Final concentrations were 2 µM untreated RD2, purified RD2, purified HSM-3 and 0.125% Triton X-100. Cell viability was then measured using the Cell Proliferation Kit I (MTT) (Roche, Basel, Switzerland) according to the manufacturer’s instruction. The final absorbance of the formazan product was determined as the absorbance at 570 nm subtracted by the absorbance at 660 nm. All results were normalized to cells that were treated with buffer only. The experiments were performed in triplicate.

MTT cell viability assay = format: cell-based, rat; conditions: rat, cell viability
Description: as §4

[5] = Comparison of RD2 metabolite profiles across species: cynomolgus liver microsomes; format: in vitro ADME, cynomolgus monkey
Description: as §1, §2, §3

cynomolguses = conditions: cynomolgus monkey, in vivo, po; cited from earlier work

CC(C)C[C@@H](NC(=O)[C@H](NC(=O)[C@H]1CCCN1)[C@H](C)O)C(=O)N[C@H](Cc1c[nH]cn1)C(=O)N[C@@H](C(=O)N[C@H](Cc1c[nH]cn1)C(=O)N[C@H](CC(N)=O)C(=O)N[C@H](CCCNC(=N)N)C(=O)N[C@H](CCCNC(=N)N)C(=O)N[C@H](CCCNC(=N)N)C(=O)N[C@H](CCCNC(=N)N)C(=O)N[C@H](CCCNC(=N)N)C(N)=O)[C@H](C)O [RD2, ptlhthnrrrrr] (H-[dP][dT][dL][dH][dT][dH][dN][dR][dR][dR][dR][dR]-NH2)
metabolised at 24 h, 150 µM ([1]; Sprague Dawley, pooled rat liver microsomes, rat samples, 24 h, read-out: decrease of the intensity of the RD2 peak): 17 ± 4%
metabolization of RD2 after 2 h ([1]; rat liver microsomes, 150 µM, 2 h): unmetabolized
remaining at 24 h, 150 µM [2]: ≥ 97%
inhibition of CYP2C9 (CYP2C9; concentration range 0 to 25 µM): did not inhibit
inhibition at 0.25 µM (CYP2C9; human, human liver microsomes): 6.15%
inhibition at 1 µM (CYP2C9; human, human liver microsomes): -0.871%
inhibition at 2.5 µM (CYP2C9; human, human liver microsomes): 0.607%
inhibition at 10 µM (CYP2C9; human, human liver microsomes): -7.38%
inhibition at 25 µM (CYP2C9; human, human liver microsomes): -26.8%
metabolised at 480 h, 150 µM ([3]; 150 µM, within 20 days, read-out: peptide degraded): 87 ± 3%
half-life at 150 µM ([3]; read-out: half-life (first order kinetics fit) (converted)): 216 h
inhibition of CYP3A4 (CYP3A4; concentration range 0 to 25 µM): did not inhibit
inhibition at 0.25 µM (CYP3A4; human, human liver microsomes): -0.223%
inhibition at 1 µM (CYP3A4; human, human liver microsomes): 5.77%
inhibition at 2.5 µM (CYP3A4; human, human liver microsomes): 1.71%
inhibition at 10 µM (CYP3A4; human, human liver microsomes): -3.08%
inhibition at 25 µM (CYP3A4; human, human liver microsomes): -12%
cell viability [4]: 93 ± 6%
viability at 24 h, 2 µM (MTT cell viability assay): 99 ± 4%
metabolization of RD2 after 2 h ([5]; cynomolgus liver microsomes, 150 µM, 2 h): unmetabolized
metabolised at 24 h, 150 µM ([5]; monkey, pooled cynomolgus monkey liver microsomes, cynomolgus samples, 24 h, read-out: decrease of the intensity of the RD2 peak): 9 ± 2%
toxic effects of orally administered RD2 (cynomolguses): does not cause toxic effects up to high doses
